Measurements from patent US10118943B2, “Compounds and methods for inhibiting cell death” (Ramot at Tel-Aviv University Ltd., priority 2012, dated 2018).
“Also recorded” adds a separate entry of the source. Like-named read-outs stand apart in the source and are kept apart here. Ends that are not written are not given here.

Columns and labels:
PC12 cells = details: ZnCl2 400 μM, 4 h
Method: FIG. 15: Rat pheochromocytoma cells (PC12) were seeded on Poly-D-Lysine coated 96-well tissue culture dishes in high concentration (30,000 cells/well). On the day of the experiment the cells were treated with ZnCl2 (400 μM) either alone or in combination with different concentration of SKIP for 4 h. After 4 h the cell viability was analyzed by MTS assay. […] All values are from one experiment performed in hexplicate.
Rat pheochromocytoma cell (PC12, ATCC, Bethesda, Md., USA) were grown in 10-cm tissue culture dishes (Corning). The base medium for this cell line was RPMI-1640 Medium (Invitrogen) supplemented with 10% heat-inactivated horse serum, 5% fetal bovine serum and solution containing 100 U/ml penicillin together with […] streptomycin (Biological Industries, Beit Haemek, Israel). The cells were incubated in 95% air; 5% CO2 in a humidified incubator at 37° C. The medium was changed every 2 to 3 days. The cells were subcultured when cell density reached 4×10^6 cells/ml. The cells were split in a ratio of 1:4.
On the day before the experiment cells were to be harvested, re-suspended and seeded on tissue culture dishes. For cell viability measurements, cells were seeded on Poly-D-Lysine coated 96-well tissue culture dishes (Sigma-Aldrich) at a concentration of 3×10^4 cells/well.
The cell viability is measured by colorimetric method that determines the number of viable cells in culture. This method is based on the bio-reduction of the tetrazolium compound [3-(4,5-dimethylthiazol-2-yl)-5-(3-carboxymethoxyphenyl)-2-(4-sulfophenyl)-2H-tetrazolium; MTS] by living cells into a colored formazan product. This reaction is occurring in the presence of an electron coupling reagent (phenazine ethosulfate; PES). The amount of formazan product is measured by ELISA plate reader at 490 nm and is directly proportional to the number of living cells in culture (CellTiter 96® AQueous One Solution Cell Proliferation Assay; Promega, Madison, Wis., USA).

ADNP+/− mice [1] = assay: Object recognition test in ADNP-deficient mice; type: in vivo, mouse; details: intranasal, twice a day, 1 month, ADNP+/− male mice
Source text: (§1) All procedures involving animals were approved by the Animal Care and Use Committee of Tel Aviv University and the National Institutes of Health (Bethesda, Md.). ADNP heterozygous mice, a model for cognitive impairments (Vulih-Shultzman et al., 2007, J. Pharmacol. Exp. Ther. 323:438-449), were housed in a 12-h light/12-h dark cycle facility, and free access to rodent chow and water was available.
(§2) SKIP (SEQ ID NO:6) treatment included daily intranasal administrations over a 1 month period to 5-month-old male mice (2 μg/5 μl/mouse/day). For intranasal administration, the peptide was dissolved in a vehicle solution, in which each milliliter included 7.5 mg of NaCl, 1.7 mg of citric acid monohydrate, 3 mg of disodium phosphate dihydrate, and 0.2 mg of benzalkonium chloride solution (50%). SKIP (SEQ ID NO:6) or vehicle solution (DD) was administered to mice hand-held in a semisupine position with nostrils facing the investigator. A pipette tip was used to administer 5 μl/each nostril. The mouse was handheld until the solution was totally absorbed (˜10 s). Nasal SKIP (SEQ ID NO:6) application was performed daily, twice a day, for 1 month (5 days a week). After 1 month, SKIP (SEQ ID NO:6) was applied 2 h before the behavioral tests (described below).
The test includes 2 consecutive days of habituation (five minutes per day) and the experimental day which consists of the three phases. The test was conducted two hours after the daily intranasal SKIP (SEQ ID NO:6). During the first phase (Phase 1, habituation phase), the open field apparatus (arena of 50×50 cm) contained two identical objects (samples) and a mouse was placed in the apparatus facing the wall and allowed to freely explore the objects. At the end of the 5-min session of Phase 1, the mouse was put back into its home cage for 3 hours. […] The time spent sniffing/touching each object was measured. The data was analyzed using the following formula: D1=b−a, when ‘a’ designated the time of exploration of the familiar object and ‘b’ designated the time of exploration of the novel object. […]

ADNP+/− mice [2] = assay: Morris water maze in ADNP-deficient mice; type: in vivo, mouse; details: intranasal, twice a day, 1 month, ADNP+/− male mice
Source text: as §1
SKIP (SEQ ID NO:6) treatment included daily intranasal administrations over a 1 month period to 5-month-old male mice (2 μg/5 μl/mouse/day). […]
The apparatus was a pool with a diameter of 140 cm, filled with opaque water (23-24° C.). […] The time taken for an animal to reach the platform (latency) was recorded. The daily improvement (in seconds to reach the hidden platform) for each animal (in comparison to the starting day) was calculated. […] The platform was removed from the maze and the distance traveled and the time spent by the mice in the pool's quarter where the platform used to be, were recorded (for a maximal period of 90 s). Mouse behavior in the quarter that is most distant from the target quarter was also measured. All measurements were recorded as the percentage of the total time spent or total path traveled in the pool. To determine the general mobility of the mice in the pool, the swimming behavior of each animal was monitored and the total path length and swim velocity were calculated. […]

ADNP+/− mice [3] = assay: Elevated plus-maze in ADNP-deficient mice; type: in vivo, mouse; details: intranasal treatment, ADNP+/− male mice, 5 min
Source text: as §1
as §2, with “Nasal SKIP (SEQ ID NO:6) application was performed daily, twice a day, for 1 month (5 days a week). After 1 month, SKIP (SEQ ID NO:6) was applied 2 h before the behavioral tests (described below).” left out
The maze consisted of two open arms (50 cm×10 cm) and two closed arms 50 cm×10 cm×40 cm), with arms of each type opposite to each other. […] The data were analyzed using the following formula: D2=(b−a)/(b+a), when ‘a’ designated the time spent in the open arm and ‘b’ designated the time spent in the closed arm.

For “SKIP (not fully specified (N-terminus, C-terminus)) [SKIP (SEQ ID NO:6), 4-amino acid peptide Ser-Lys-Ile-Pro]”, the “protection against Zn intoxication (MTS viability vs Zn alone)” value (PC12 cells; peptide 10^−9M) was “showed protection”, the “protection against Zn intoxication (MTS viability vs Zn alone)” value (PC12 cells; peptide 10^−15M) was “showed protection” and the “object recognition, Phase 2 short retention (discrimination index D1)” value (ADNP+/− mice [1]) was “improved short and long term memory”. For the same substance, the “object recognition, Phase 3 long retention, 24 hours (discrimination index D1)” value (ADNP+/− mice [1]) was “improvement in long term memory for the ADNP-deficient mice, bringing them to the control levels; also recorded: improved short and long term memory”, the “water maze first daily test (reference memory), latency to hidden platform” value (ADNP+/− mice [2]) was “improved learning on the 2nd day; also recorded: improved the memory” and the “water maze second daily test, 5th day, latency to hidden platform” value (ADNP+/− mice [2]) was “improvement in the behavior of the ADNP-deficient mice, bringing them to the control levels”. The “risky behavior, time spent in open vs closed arms” value (ADNP+/− mice [3]) was “reduction in the risky behavior; also recorded: improvement in the risky behavior”.
